Usually IC50 stands for the concentration that inhibits the measured activity by half.

The assay deals with Xanthine dehydrogenase/oxidase (Bos taurus, UniProt P80457). Kind of assay: Inhibition Assay: Xanthine oxidase (from bovine milk, Sigma) was prepared with phosphate-buffered saline (PBS) at 0.02 units/mL, and then the solution was added to 96 well plates at 50 μL/well. In addition, test compounds diluted with PBS were added at 50 μL/well. Xanthine (Wako) at 200 μM prepared with PBS was added at 100 μL/well, and the reaction was conducted for 10 minutes at room temperature. Absorbance at 290 nm was measured using a microplate reader SpectraMax Plus 384 (Molecular device). The absorbance under a condition without xanthine is 0%, and control without test compounds is 100%.
Xanthine dehydrogenase/oxidase, sequence (P80457 whole entry): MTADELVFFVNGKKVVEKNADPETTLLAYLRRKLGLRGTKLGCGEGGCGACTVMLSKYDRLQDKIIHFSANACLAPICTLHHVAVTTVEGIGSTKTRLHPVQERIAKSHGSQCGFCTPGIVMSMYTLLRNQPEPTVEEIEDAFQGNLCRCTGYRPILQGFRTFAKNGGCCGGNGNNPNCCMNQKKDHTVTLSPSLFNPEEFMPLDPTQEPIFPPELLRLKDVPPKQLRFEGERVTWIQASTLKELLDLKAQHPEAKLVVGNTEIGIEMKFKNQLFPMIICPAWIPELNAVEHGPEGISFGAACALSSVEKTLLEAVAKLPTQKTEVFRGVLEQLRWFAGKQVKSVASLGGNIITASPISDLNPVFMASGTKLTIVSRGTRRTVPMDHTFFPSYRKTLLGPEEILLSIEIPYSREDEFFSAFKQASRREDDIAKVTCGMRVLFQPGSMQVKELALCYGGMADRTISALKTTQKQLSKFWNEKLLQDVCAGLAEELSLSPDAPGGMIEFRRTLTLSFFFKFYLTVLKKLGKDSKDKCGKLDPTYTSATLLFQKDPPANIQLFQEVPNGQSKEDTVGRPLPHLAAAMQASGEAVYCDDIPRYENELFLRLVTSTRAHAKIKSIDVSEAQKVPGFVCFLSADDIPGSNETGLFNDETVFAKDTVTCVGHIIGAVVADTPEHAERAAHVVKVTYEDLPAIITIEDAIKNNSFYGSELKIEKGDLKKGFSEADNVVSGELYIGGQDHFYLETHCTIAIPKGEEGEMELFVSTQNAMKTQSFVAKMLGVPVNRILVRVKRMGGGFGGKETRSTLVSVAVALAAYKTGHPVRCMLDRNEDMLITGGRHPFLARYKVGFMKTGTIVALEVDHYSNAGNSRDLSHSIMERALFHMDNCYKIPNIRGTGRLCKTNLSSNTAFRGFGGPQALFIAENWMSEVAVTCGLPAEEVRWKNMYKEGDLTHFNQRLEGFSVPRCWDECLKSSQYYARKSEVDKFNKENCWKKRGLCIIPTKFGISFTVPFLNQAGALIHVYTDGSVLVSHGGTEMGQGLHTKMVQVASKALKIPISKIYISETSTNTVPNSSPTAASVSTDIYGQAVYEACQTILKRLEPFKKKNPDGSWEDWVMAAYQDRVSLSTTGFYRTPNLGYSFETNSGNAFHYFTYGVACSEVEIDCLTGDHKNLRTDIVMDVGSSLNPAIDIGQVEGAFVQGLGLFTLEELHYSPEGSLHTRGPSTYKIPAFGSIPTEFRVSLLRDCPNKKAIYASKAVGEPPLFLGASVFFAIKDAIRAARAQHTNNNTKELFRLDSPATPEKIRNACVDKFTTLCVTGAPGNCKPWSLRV

Take `N#Cc1cn(-c2ccc(C(=O)O)cc2)cc1-c1ccccc1OCCOc1ccccc1`: the IC50 was 0.047 µM.
Under `N#Cc1cn(-c2ccc(C(=O)O)cc2)cc1-c1ccc(OCCCO)cc1` stands 0.0632 µM.

Source of the values: ChEMBL document CHEMBL3639260, “5-membered nitrogen containing heterocyclic derivatives and pharmaceutical compositions comprising the same” (2015).
